Series [1] is described as follows: pH dependency of the carboxyl oxygen exchange reaction (18O incorporation into Ac-Lys-OH). The class given is biochemical. The settings on record: 10 mM Ac-Lys-OH, 1 μM enzyme, 25° C., 95% H2^18O, pH 4.0-9.0 examined. The protocol: The initial rate of carboxyl oxygen exchange reaction catalyzed by Lys-C and trypsin was determined by monitoring the rate of ^18O atom incorporation into the carboxyl terminus of Ac-Lys-OH. For the pH studies, a 10 mM solution of Ac-Lys-OH in aqueous buffers at different pHs was incubated with 1 μM Lys-C or trypsin at 25° C. in 95% H2^18O buffered at various pHs. The buffer solutions used were 50 mM citrate at pH 4.0, 5.0 and 6.0 (pH adjusted by addition of NaOH), 50 mM phosphate at pH 7.0 and 8.0 (pH adjusted by addition of NaOH) and 50 mM Tris at pH 9.0 (pH adjusted by addition of HCl). The duration of the reaction was 5 minutes for Lys-C and 20 minutes for trypsin. […] The single ^18O atom incorporated reaction product, Ac-Lys-^18OH, in the reconstituted reaction solution was then quantified by stable isotope dilution tandem mass spectrometry, as described below. […]
(§1) An Agilent 1100 HPLC system (Palo Alto, Calif.) coupled to an API 3000 triple quadrupole mass spectrometer equipped with a TurbolonSpray™ ion source (Applied Biosystems-MDS-Sciex, Foster City, Calif.) was used to quantify Ac-Lys-^18OH. […]
Amounts of Ac-Lys-^18OH in the reaction mixture were determined from the chromatographic peak area ratios of the analyte over the internal standard, assuming identical ionization efficiencies and identical yields of fragment ions for Ac-Lys-^18OH and [^13C2]Ac-Lys-OH. […]

Series [2] has as its system peptide that has an arginine residue at the C-terminus (Arg-peptide). In words: 18O atom incorporation into apomyoglobin Arg-peptides by LC/MS. The settings on record: for time to complete incorporation of two ^18O atoms: H2^18O. Format: biochemical, Horse. The protocol: (§2) We semi-quantitatively measured the rate of ^18O atom incorporation into Lys-C and tryptic peptides derived from apomyoglobin. This was done to test whether the increased rate of carboxyl oxygen exchange noted for the reaction of Ac-Lys-OH at acidic pH could be generalized to peptide substrates. Apomyoglobin (34 μg) was digested for 16 hours at 25° C. with either 1 μg of Lys-C or trypsin in 100 mM ammonium bicarbonate in H2^16O solvent. The digestion was stopped by adding formic acid to a final concentration of 1% and by boiling the reaction mixture for 2 minutes. The resulting Lys-C and tryptic peptides were lyophilized and used in the following experiments.
(§3) The rate of the carboxyl oxygen exchange reaction into the Lys-C and tryptic peptides by Lys-C and trypsin, respectively, were semi-quantitatively measured by looking at the rate of ^18O atom incorporation into the carboxyl termini of the peptides by LC/MS (described below). The Lys-C and tryptic digests (both 1.5 μg) were incubated with Lys-C and trypsin (both 0.03 μg), respectively, in H2^18O at 30° C. buffered (see above) at pH 5.0 or 9.0 for Lys-C and pH 6.0 or 8.0 for trypsin for various reaction times (1 minute-60 minutes). The total reaction volume was 50 μL. Aliquots (5 μL) of the reaction mixtures were taken after 1, 5, 10, and 60 minutes. The reactions were stopped by mixing with 40 μL of 10% formic acid and by heating at 95° C. for 2 minutes. After the heat treatment, the solvents were evaporated in the speed-vac concentrator and the samples were stored at −20° C. until use.
The stored ^18O labeled peptide mixtures were reconstituted in 20 μL of aqueous 0.1% trifluoroacetic acid (TFA), desalted by a C18 ZipTip as per the manufacturer's instructions (Millipore, Bedford, Mass.), and subjected to LC/MS analysis using an UltiMate nano HPLC system (Dionex, San Francisco, Calif.) interfaced to a QStar quadrupole/time of flight mass spectrometer (Applied Biosystems-MDS Sciex, Foster City, Calif.), as described previously. […]

For series [3], the system named is apomyoglobin peptide that has a lysine residue at the C-terminus (Lys-peptide). In words: 18O atom incorporation into apomyoglobin Lys-peptides by LC/MS. The class given is biochemical, Horse. On the procedure: as §2, §3
The stored ^18O labeled peptide mixtures were reconstituted in 20 μL of aqueous 0.1% trifluoroacetic acid (TFA), desalted by a C18 ZipTip as per the manufacturer's instructions (Millipore, Bedford, Mass.), and subjected to LC/MS analysis using an UltiMate nano HPLC system (Dionex, San Francisco, Calif.) interfaced to a QStar quadrupole/time of flight mass spectrometer (Applied Biosystems-MDS Sciex, Foster City, Calif.), as described previously. Briefly, the peptide mixture (5 μl) was injected directly into a reverse-phase analytical column (0.075×60 mm, New Objective Inc., Woburn, Mass.) packed with Jupiter C18 media (Phenomenex, Torrance, Calif.), washed with 2% acetonitrile/0.1% formic acid (v/v) in water for 15 minutes at flow rate of 2 μL/min. The peptides were then eluted with a 40 minute linear gradient of 2% acetonitrile/0.1% formic acid (v/v) in water to 40% acetonitrile/0.1% formic acid (v/v) in water at a flow rate of 200 nL/min. The column effluent was directed on-line to a nano-electrospray ion source. The total ion current was obtained in the mass range of m/z 400-1600 in the positive ion mode. The electrospray and orifice voltages were 2050V and 65V, respectively.

The nature of series [4]: steady-state kinetic parameters for the carboxyl oxygen exchange reaction. Format: biochemical. On the procedure: The steady-state kinetic parameters for the carboxyl oxygen exchange reaction by Lys-C and trypsin were obtained at two different pHs (pH 9.0 and 5.0 for Lys-C and pH 8.0 and 6.0 for trypsin). Ac-Lys-OH (0.0625-10 mM) was incubated with 1 uM Lys-C or trypsin at 30° C. in 95% H2^1 80 buffered at various pHs (described above). The total volume of the reaction was 20 μL. The duration of the reaction was 10 min for Lys-C and 20 min for trypsin. The single ^18O atom incorporated reaction product, Ac-Lys-180H, was quantified after addition of a [^13C2]Ac-Lys-OH internal standard (0.75 μg) by stable isotope dilution tandem mass spectrometry, as described below. All reactions were carried out in triplicate.
Km and Vmax values were calculated by fitting the Michaelis-Menten equation to the experimental data using SigmaPlot 9.01 (Systat Software, Richmond, Calif.). Kcat values were calculated by dividing the obtained Vmax values by the total enzyme amount added to the system.
An Agilent 1100 HPLC system (Palo Alto, Calif.) coupled to an API 3000 triple quadrupole mass spectrometer equipped with a TurbolonSpray™ ion source (Applied Biosystems-MDS-Sciex, Foster City, Calif.) was used to quantify Ac-Lys-^18OH. The reconstituted reaction mixtures were injected (typically 5 μL) onto a reversed-phase C18 column (2.1×150 mm, 5 μm, 300 Å, Vydac) equilibrated with 5% acetonitrile/0.1% HFBA (v/v) in water and then eluted with the same solvent at a flow rate of 200 μL/min. A switching valve (Valco Instrument, Houston, Tex.) was placed between the HPLC system and the mass spectrometer to divert non-volatile salt fractions from the mass spectrometer at the beginning of the run. The switching valve was switched in-line with the mass spectrometer at 3 minutes after the injection. The elution time of Ac-Lys-^18OH was 3.8 minutes.
The ion spray voltage and the ion source probe temperature were set at 5 kV and 400° C., respectively. Nitrogen was used both as a nebulizer and as an auxiliary gas, at flow rates of 3 and 8 L/min, respectively. A multiple reaction monitoring mode was used for monitoring Ac-Lys-^18OH and [^13C2]Ac-Lys-OH. The precursor and fragment ions monitored were m/z 191 (Ac-Lys-^18OH+H) and 149 (H-Lys-^18OH+H) for Ac-Lys-^18OH and m/z 191 ([^13C2]Ac-Lys-OH+H) and 147 (H-Lys-^16OH+H) for [^13C2]Ac-Lys-OH, respectively. […]
Amounts of Ac-Lys-^18OH in the reaction mixture were determined from the chromatographic peak area ratios of the analyte over the internal standard, assuming identical ionization efficiencies and identical yields of fragment ions for Ac-Lys-^18OH and [^13C2]Ac-Lys-OH. The experimentally determined amounts of Ac-Lys-^18OH were corrected upward 5%, accounting for 60 incorporation resulting from the H2^18O solvent having a 5% H2^16O content. […]

A short description of series [5]: amidase activity (hydrolysis of Ac-Lys-NH2 in H2^18O). Conditions: 10 mM Ac-Lys-NH2, 25° C., 95% H2^18O, within the pH range examined. The class given is biochemical. On the procedure:
The amidase activity of Lys-C and trypsin was measured by monitoring the initial rate of hydrolysis of Ac-Lys-NH2 in H2^18O. Ac-Lys-NH2 (10 mM) was incubated with 0.2 uM Lys-C or 1 uM trypsin at 25° C. in 95% H2^18O at various pHs. The buffer solutions used were the same as described above for the carboxyl oxygen exchange reactions. The duration of the reaction was 5 min for Lys-C and 20 min for trypsin. The single ^18O atom incorporated reaction product, Ac-Lys-^18OH, was quantified after addition of a [^13C2]Ac-Lys-OH internal standard (0.75 μg) by stable isotope dilution tandem mass spectrometry, as described below. All reactions were carried out in triplicate.
as §1
The ion spray voltage and the ion source probe temperature were set at 5 kV and 400° C., respectively. […] The precursor and fragment ions monitored were m/z 191 (Ac-Lys-^18OH+H) and 149 (H-Lys-^18OH+H) for Ac-Lys-^18OH and m/z 191 ([^13C2]Ac-Lys-OH+H) and 147 (H-Lys-^16OH+H) for [^13C2]Ac-Lys-OH, respectively. […]

On to trypsin, for which, in series [1], the “optimum pH of the carboxyl oxygen exchange reaction” value was found to be 6.0 pH. The “dominant peak after 1 minute of incubation” value in series [2] (both pH 6.0 and 8.0) is given as “two ^18O atoms”. Also, the “time to complete incorporation of two ^18O atoms” value in series [2] (pH 6.0, 30° C.) is at most 10 min; in series [2] (pH 8.0, 30° C.), 60 min; in series [3] (pH 6.0, 30° C., H2^18O), at most 10 min; in series [3] (pH 8.0, 30° C., H2^18O) it was over 60 min. Besides, the “dominant result after 1 minute of incubation” value in series [3] (pH 6.0 and 8.0) was “incorporation of only one ^18O atom”. Also, in series [3] (pH 8.0, 30° C., H2^18O), the “dominant result of ^18O incorporation” value is “incorporation of only one ^18O atom”. Besides, the “kcat/Km of carboxyl oxygen exchange, fold lower than reported kcat/Km for amide hydrolysis” value in series [4] (pH 6.0 versus N-benzoyl-L-lysine amide hydrolysis at pH 8.0) was determined as 5.1 fold. The “Km, fold smaller at acidic than at alkaline pH” value in series [4] (pH 6.0 versus pH 8.0) was “about 3 fold”. Besides, the “kcat, fold higher at acidic than at alkaline pH” value in series [4] (pH 6.0 versus pH 8.0) is recorded as “about 5 fold”. For the same substance, the “rate of the carboxyl oxygen exchange” value in series [4] (pH 9.0) was “too low”. Also, the “most favorable pH for the amidase activity” value in series [5] was 9 pH.

For the origin of these results see patent US8580534B2, “Method for incorporation of two oxygen atoms into digested peptides using peptidases” (The University of North Dakota, priority 2006, dated 2013).
